{"source": "paper PMC3606118", "about": "“Salvianolic Acid A, a Novel Matrix Metalloproteinase-9 Inhibitor, Prevents Cardiac Remodeling in Spontaneously Hypertensive Rats” (PLoS ONE, 2013)", "key": {"[1]": {"tested_on": "spontaneously hypertensive rats (SHR)", "type": "in vivo", "conditions": "for HW/BW (heart weight divided by body weight): 0 mg 4.37±0.08; for collagen volume fraction: 0 mg/kg 4.61±0.31", "protocol": "2-month old male SHR rats were given rodent chow containing 8% NaCl 4 weeks before SaA treatment to the end of the experiment. Rats were divided into four groups (20 per group) and were injected intraperitoneally with saline or SalA everyday at the indicated dose for 4 weeks. The four groups were named as SalA (0 mg/kg), SalA (2.5 mg/kg), SalA (5 mg/kg), SalA (10 mg/kg) basing on the dose of SalA, respectively.\nAfter ketamine-xylazine anesthesia (ketamine: xylazine, 60∶5 mg/kg, intramuscularly), heart, liver and kidney samples from experimental animals were fixed with 4% neutral-buffered paraformaldehyde for 24 h. Specimens were paraffin-embedded, sliced at 5 µm, and stained with haematoxylin and eosin. After staining, the sections were rinsed with distilled water, dehydrated, and mounted with Permount. Photomicrographs were taken using an Olympus BX51 microscope plus Olympus DP71 CCD camera (Olympus Corporation). Software Image-Pro Plus version 6.0 was used and approximately 150 cells per heart were measured to determine the average myocyte circumference. Paraffin-embedded slices were also stained with 0.1% picric sirius red (Sigma-Aldrich Inc, St Louis, USA) for fibrillar collagen. Collagen volume fraction (CVF) was expressed as a percentage of the total area of the field occupied by collagen staining."}, "[2]": {"tested_on": "neonatal cardiac fibroblast", "experiment": "CCK-8 proliferation of neonatal cardiac fibroblast", "type": "cell-based, Wistar rats", "conditions": "10 µmol/L SalA with MMP-9 CD, 24 h", "protocol": "(§1) Primary cardiac fibroblast was obtained from neonatal rats and National Institutes of Health (NIH) Guide for the Care and Use of Laboratory Animals was followed throughout. Wistar rats (2–4 day old) were sacrificed by cervical dislocation; ventricles were minced and digested with 0.1% trypsin at 37°C for 8 min. The liberated cells were collected by centrifugations; non-digested chunk materials were further digested in 0.1% trypsin for an additional 8 min. This digestion procedure was repeated 3–4 times. All the liberated cells were pelleted by centrifugation at 1,000 rpm for 10 min, re-suspended in DMEM containing 10% fetal bovine serum (FBS), and cultured in a 100-mm noncoated culture flask at 37°C with 5% CO2 for 2 h. Adherent cardiac fibroblasts were collected and maintained in DMEM supplemented with 10% FBS, 100 U/mL penicillin, 100 µg/mL streptomycin [12]. Cardiac fibroblasts were treated by vehicle (Con); 200 nmol/L MMP-9 CD (MMP-9); 200 nmol/L MMP-9 CD plus 1 µmol/L SalA [MMP-9/SalA(1)]; or 200 nmol/L MMP-9 CD plus 10 µmol/L SalA [MMP-9/SalA(10)] for the following research. All the detections were conducted after 24 h treatment.\nCell proliferation assay was performed using Cell Counting Kit (CCK-8 kit, Dojindo Laboratory, Japan) as described previously. Absorbance was detected at 450 nm (reference 650 nm) using a microplate reader (Tecan GENios, Austria)."}, "[3]": {"tested_on": "neonatal cardiac fibroblast", "experiment": "Soluble collagen secretion (picrosirius red assay)", "type": "cell-based, Wistar rats", "conditions": "24 h, p<0.05", "protocol": "as §1, with “All the detections were conducted after 24 h treatment.” left out\nSoluble collagen secreted by neonatal cardiac fibroblast was measured using picrosirius red assay with minor modification, [15]. […] 200 µL solution was transferred to 96 well plate for measuring absorbance at 595 nm using a UV spectrophotometer (Tecan GENios, Austria)."}, "[4]": {"conditions": "2.5 mg/kg i.p. everyday 4 weeks"}}, "note": "Read-outs that look alike come from different tables or passages of the source.", "data": [{"compound": "O=C(/C=C/c1ccc(O)c(O)c1/C=C/c1ccc(O)c(O)c1)O[C@H](Cc1ccc(O)c(O)c1)C(=O)O", "note": "[SalA, salvianolic acid A]", "values": [{"measurement": "HW/BW (heart weight divided by body weight)", "setting": "[1]; [4]", "result": "4.36 ± 0.05", "unit": "mg/g"}, {"measurement": "collagen volume fraction", "setting": "[1]; [4]", "result": "4.48±0.29", "unit": "%"}, {"measurement": "HW/BW (heart weight divided by body weight)", "setting": "[1]; 5 mg/kg i.p. everyday 4 weeks", "result": "4.37 ± 0.08", "unit": "mg/g"}, {"measurement": "collagen volume fraction", "setting": "[1]; 5 mg/kg i.p. everyday 4 weeks", "result": "3.04±0.16", "unit": "%"}, {"measurement": "HW/BW (heart weight divided by body weight)", "setting": "[1]; 10 mg/kg i.p. everyday 4 weeks, p<0.05", "result": "4.10 ± 0.08", "unit": "mg/g"}, {"measurement": "collagen volume fraction", "setting": "[1]; 10 mg/kg i.p. everyday 4 weeks", "result": "2.58±0.17", "unit": "%"}, {"measurement": "cardiomyocyte size (myocyte circumference)", "setting": "[1]; SalA treatment versus SHR, p<0.001", "result": "significantly down-regulated"}, {"measurement": "proliferation of neonatal cardiac fibroblast", "setting": "[2]", "result": "considerable promotion"}, {"measurement": "net collagen production in the presence of MMP-9 CD", "setting": "[3]; 1 µmol/L SalA", "result": "significantly attenuated"}, {"measurement": "net collagen production in the presence of MMP-9 CD", "setting": "[3]; 10 µmol/L SalA", "result": "significantly attenuated"}]}]}
